A short description of test [1]: Oxygen radical absorbency capacity (ORAC).
Test [2] has as its system THP-1 monocytes. Description: Protection from oxidative stress, MitoSOX Red mitochondrial superoxide indicator, flow cytometry. The test is classed as cell-based. Particulars: 3 hours treatment, then H2O2 challenge 3 hours, sample 100 ug/ml final, positive control 100 uM, 0% = challenged negative control, 100% = unchallenged normal control. From the text:
The assay described in this experiment measures oxidative stress occurring within the mitochondria. As discussed above, the biochemical reactions used by mitochondria to generate energy yielding ATP molecules also produce highly oxidizing superoxide free radical as a by-product. Using flow cytometry, the below example measures the protection various test samples provide from oxidative stress by monitoring the status of superoxide within mitochondria following treatment with the test materials.
MitoSOX Red mitochondrial superoxide indicator (Invitrogen cat#M36008) is a fluorescent dye that is selectively taken up by mitochondria. Once in the mitochondria, MitoSOX reacts with superoxide free radical to form a fluorescent product (excitation/emission maxima=510/580 nm) that binds to mitochondrial nucleic acids. A higher fluorescence reading corresponds to a higher level of superoxide free radical being present within the mitochondria.
Cell Culture: One 6 well plate is used per sample. Multiple plates may be prepared simultaneously. Refer to Table I for a plate description. THP-1 monocytes (ATCC cat# TIB-202) are plated at 1.5×10^6 cells/well in 6 well plates (contained in 2 ml/well RMPI 1640 media supplemented with 10% FBS) and incubated for 1 hour before treating.
Treatment: Glutathione monoethylester (GMEE, 100 uM final concentration) is used as a positive control. […]
A general note: A flow cytometer gives signals particle by particle.

With `COC(=O)c1cc(O)ccc1O` [Methylgentisate, methylgentisate], the “oxygen radical absorbency capacity (ORAC)” value in test [1] is recorded as 25,605 μmol Teq/g.
Consider `CCOC(=O)CNC(=O)[C@H](CS)NC(=O)CC[C@H](N)C(=O)O` [glutathione methyl ester], for which, in test [2], the “protection from oxidative stress” value worked out at 35%.

The values are drawn from patent US20080138393A1, “Water soluble extract of spinach for prevention and repair of DNA damage” (Access to Business Group International LLC, priority 2006, published 2008).
